The record followed here is US9029127B2, “Method of degrading TBP using a photosynthetic bacterial strain” (priority 2003, dated 2015).

The test system of one data set is Serratia odorifera sp. Kind of data set: Effect of carbon monoxide on growth and TBP degradation of Serratia odorifera. As to conditions: aerobiosis; for effect of CO on growth: Tsb medium. In kind it is cell-based.
The test system of data set [1] is Rp. palustris CGA009 (ATCC BAA-98). Kind of data set: Effect of the cytochrome P450 inhibitor carbon monoxide on growth and TBP degradation of Rp. palustris. The settings on record: for effect of CO on growth: photosynthetic conditions, Hutner medium.
Data set [2] has as its system proteins extracted from Rp. palustris CGA009. It is filed as biochemical, Rhodopseudomonas palustris.
The test system of another data set is Rp. palustris ΔpRpa1. In kind it is cell-based, Rhodopseudomonas palustris.
A further data set has as its system Rp. palustris. Kind of data set: Growth of wild-type Rp. palustris in the presence of gentamycin. In kind it is cell-based, Rhodopseudomonas palustris. As to conditions: gentamycin 50 μg·ml^−1.

Take `[C-]#[O+]` [CO, carbon monoxide]: the “effect of CO on TBP degradation yield” value with Serratia odorifera sp. (2 mM TBP) is “does not significantly modify”. In addition, the “effect of CO on growth” value in the data set on Serratia odorifera sp. (2 mM TBP present) is recorded as “nor does it affect the growth”; with Serratia odorifera sp. (TBP absent), “does not affect the growth”; in data set [1] (2 mM TBP present), “greatly reduced”; in data set [1] (TBP absent), “does not affect the growth”. For the same compound, in data set [1] (residual TBP after 21 days of culture, 2 mM TBP), the “effect of CO on TBP degradation” value is “considerable decrease in TBP degradation”.
Regarding `Cc1cc2c(cc1C)N(C[C@H](O)[C@H](O)[C@H](O)COP(=O)(O)OP(=O)(O)OC[C@H]1O[C@@H](n3cnc4c(N)ncnc43)[C@H](O)[C@@H]1O)c1[nH]c(=O)[nH]c(=O)c1N2` [FADH2], in data set [2], the “effect of cofactor on TBP degradation” value was “does not significantly enhance”.
With `NC(=O)C1=CN([C@@H]2O[C@H](COP(=O)(O)OP(=O)(O)OC[C@H]3O[C@@H](n4cnc5c(N)ncnc54)[C@H](O)[C@@H]3O)[C@@H](O)[C@H]2O)C=CC1` [NADH], the “effect of cofactor on TBP degradation” value in data set [2] is on record as “does not significantly enhance”.
Take gentamycin: the “growth in the presence of the antibiotic” value with Rp. palustris ΔpRpa1 was “grows in the presence of this antibiotic”. In the data set on Rp. palustris, the “resistance of the strain to the antibiotic” value was “naturally resistant”.
